The values that follow come from paper PMC4851381, “High Throughput Screening Identifies Novel Lead Compounds with Activity against Larval, Juvenile and Adult Schistosoma mansoni” (PLoS Neglected Tropical Diseases, 2016).

pEC50: −log10 of the molar value. Read-outs that look alike come from different tables or passages of the source.

One may read the AC50 as the concentration giving half of the maximal activity seen. In general, pEC50 refers to the EC50 on a negative log10 scale, so that one unit is a factor of ten. As a reminder, the CC50 is the concentration that lowers cell viability or growth by half.

The test system of data set [1] is TrxR1. Further details: method as in ChEMBL. To be noted: ref ChEMBL; cited from earlier work.
Data set [2] concerns TRPC4. On the set-up: method as in ChEMBL. To be noted: ref ChEMBL; cited from earlier work.
The test system of data set [3] is Cyp3A4. Further details: method as in ChEMBL. To be noted: ref ChEMBL; cited from earlier work.
Data set [4] has as its system Cyp2C19. Further details: method as in ChEMBL. The conditions noted are these: ref ChEMBL; cited from earlier work.
The test system of data set [5] is Pyoellii. On the set-up: method as in ChEMBL. To be noted: reported by Novartis in Science paper; ref ChEMBL; cited from earlier work.
Data set [6] deals with P. falciparum. Further details: method as in Pubchem. To be noted: ref Pubchem; cited from earlier work.
The test system of data set [7] is S. mansoni schistosomula. The data set is described as follows: Larval HTS and larval dose response (image-based phenotype and motility of schistosomula). It is filed as cell-based, Schistosoma mansoni. Further details: Motility score: scale not given here. To be noted: for Motility score / Phenotype score: 10μM control wells. Here is the method: Experiments were performed using the Puerto Rican strain of S. mansoni maintained in Biomphalaria glabrata and CD1 mice. The strain of snail was one bred by Prof Mike Doenhoff (Nottingham University) for high susceptibility to S. mansoni and ease of breeding in large numbers to high density. Careful attention was paid to controlling infections with rotifers which otherwise would contaminate the HTS schistosomula preparations as well as affecting snail viability. This included recovery of egg masses on short length pieces of polypropylene tubing placed into the breeding tanks and treatment of these with 3 x 10 seconds immersion in 70% ethanol with 3 minutes soaking in clean water in between alcohol treatments. Schistosomula were mechanically prepared as previously described with the modification of using a 45% and 70% Percoll gradient, and the cercarial heads recovered from the 70% layer. All centrifugation steps were done at 350x g. The schistosomula generated were then incubated overnight in M169 supplemented with 100U/ml Penicillin, 300μg/ml Streptomycin, 0.25μg/ml Fungizone (Amphotericin B) (Gibco, UK) and 5% Foetal Calf serum.
The larval HTS was run as described previously. Compound libraries were provided in 384 well plates as liquid either (i) small volumes in polypropylene 384 V-bottom storage plates (Greinerbio-one) that were diluted and 500nL dispensed into black 384 imaging plates (ViewPlate 6007460; PerkinElmer) using the Biomek FxP (Beckman Coulter) or (ii) in an assay-ready format from which a 40nL volume was transferred into wells of imaging plates. […] Therefore, to prevent fungal contamination 0.25μg/ml (0.27μM) of amphotericin B (AMP-B) was added to cultures both during the overnight culture prior to plating and during the 3 day assay.
The primary HTS and subsequent juvenile and adult screens were run as single point (SP) assays at 10–12.5μM depending on the concentrations in the compound collections. Compounds were tested in duplicate. Where necessary, repeat testing was carried out on re-supplied liquid samples.
(§1) Compounds with activity against all three parasite stages were tested in parallel dose response (DR) assays against juvenile worms and MRC-5 cells. Promising compounds were then tested in the adult DR. For the parasite DR (larvae, juveniles and adults) the concentrations tested were two fold dilutions starting from 2x the primary screening concentrations (i.e. 20–25μM).
(§2) IC50 values were calculated from the drug concentration–response curves using Microsoft XLfit version 5.1.0.0 (2006–2008 ID Business Solutions Ltd). Results were expressed as the geometric mean IC50.

Data set [8] deals with S. mansoni juvenile worms. The data set is described as follows: Juvenile worm assay (3 week old worms), single point and dose response. It is filed as cell-based. To be noted: Schistosoma mansoni. Here is the method:
(§3) For production of S. mansoni juvenile or adult worms, mice were infected subcutaneously under mild isoflurane (Merial Animal Health Ltd (UK)) anaesthesia with, respectively 1400 (for juveniles) or 450 cercariae (for adults). Worms were recovered from infected mice using sterile techniques by portal perfusion 3 weeks (for juveniles) or 6 weeks (for adults) post-infection using warm perfusion medium (Dulbecco’s Modified Eagle’s Medium [DMEM], 2mM L-glutamine, 100 Units/ml penicillin, 100μg/ml streptomycin, 20mM Hepes, 10 Units/ml heparin [Sigma, UK] [8]. Adult worms were washed free of red blood cells using the perfusion medium, and finally placed in culture in complete medium (cDMEM: DMEM, 2mM L-glutamine, 100 Units/ml penicillin, 100μg/ml streptomycin, 10% foetal calf serum (FCS) at 37°C, in an atmosphere of 5% CO2. Juvenile worms were sedimented successively following washing with cold perfusion medium and then suspended in cold cDMEM until dispensed to avoid attachment to the plastic tubes.
(§4) For the juvenile assay the concentration of worms was adjusted to 40/ml cDMEM and, prior to dispensing, the suspension was cooled on ice to prevent adherence of the worms to the plastic bottles. After swirling to resuspend worms,150μL of suspension was added to the wells of 96 well microtitre plates (Nunc, Thermo Fisher Scientific, UK). Wells were quickly checked and those with <5 worms were marked. The remainder were made up to 200μL and the deficient wells topped up with a worm suspension to ensure that all wells had ≥5 worms. The adult worm assay was as described in [8] except that 1ml cultures containing 3 worm pairs were generally used. Both the juvenile and adult worm assays were assessed for activity on days +1 and +5. Drug effects were determined by assessing the viability of individual worms and calculating the mean percentage inhibition, a hit being defined as ≥70% reduction in viability.
(§5) The primary HTS and subsequent juvenile and adult screens were run as single point (SP) assays at 10–12.5μM depending on the concentrations in the compound collections. Compounds were tested in duplicate. Where necessary, repeat testing was carried out on re-supplied liquid samples. All compounds of interest were re-tested as solid compounds or by repeat synthesis and activity confirmed.
as §1, §2

Data set [9] deals with S. mansoni adult worms. Nature of the data set: Adult worm assay, single point and dose response. To be noted: Schistosoma mansoni. It is filed as cell-based. Here is the method: as §3, §4, §5, §1, §2
Data set [10] can be described thus: Cytotoxicity assay (Alamar blue). It is filed as cell-based. The conditions noted are these: human, MRC5 CC50. Here is the method:
Activity against mammalian cells was determined using MRC-5 cells. Cells were maintained in Minimum Essential Medium supplemented with glutamax (Gibco, UK), 1% non-essential amino acids (Gibco, UK) and 10% Foetal bovine serum (Gibco, UK). They were harvested by treatment with 0.25% Trypsin-EDTA for 3 minutes and diluted to 1x10^5/ml. 100μl aliquots of the cell suspension were then plated in 96 well plates (Nunc, Thermo Fisher Scientific, UK). The plates were left to incubate for 24 hours at 37°C and 5% CO2 in a humidified incubator. Cytotoxicity DR assays were set up 24 hours post incubation at 5% CO2 and 37°C, with compounds prepared at 3-fold dilutions starting from 50μM. Dilutions were added to the cells such that the final % DMSO/well was 0.5%. Each drug concentration was tested in duplicate. On each 96 well plate there were negative control wells of media only, MRC-5 cells only and MRC-5 cells with 0.5% DMSO. For positive control wells doxorubicin hydrochloride (Sigma-Aldrich, UK) was added to the cells at 100μM concentration. The cultures were then maintained for a further 72 hours at 37°C and 5% CO2. Drug cytotoxicity was determined using the redox indicator Alamar blue (AbD Serotec, UK). 10μl of Alamar Blue was added to each well and the plates incubated for 4 hours at 37°C and 5% CO2 atmosphere. The fluorescence intensity was measured using a Spectramax Gemini plate reader (Molecular Devices, UK) using an excitation wavelength of 530 nm and an emission wavelength of 580 nm.
as §2
A general note: Alamar Blue is a resazurin reagent that responds to reducing activity.

The test system of data set [11] is S. mansoni schistosomula. The data set is described as follows: Larval HTS and larval dose response (image-based phenotype and motility of schistosomula). It is filed as cell-based, Schistosoma mansoni. On the set-up: Motility score: scale not given here. To be noted: 10μM control wells, -AMP-B.
Data set [12] has as its system S. mansoni schistosomula. Further details: method as in PMID 19597541, PMID 20668553. To be noted: cited from earlier work.
Where [13] appears, read: Enamine library plates, negative control adjusted to zero.
Setting [14] is: GSK library plates, negative control adjusted to zero.
Where [15] appears, read: Pfizer library plates, negative control adjusted to zero.

Take `CCOC(=O)C1CCN(C(c2ccccn2)c2c(C)[nH]c3ccccc23)CC1` (stereo not drawn) [CHEMBL1390809]: the “activity vs TrxR1” value in data set [1] is 1.5 µM. Besides, in data set [2], the “activity as an activator of TRPC4” value was 5 to 10 µM.
With `Cc1[nH]c2ccccc2c1C(c1ccccn1)N1CCC(C)CC1` (stereo not drawn) [CHEMBL1517121], the AC50 was 2000 nM in data set [3] and 13000 nM in data set [4].
For the compound `c1ccc(-c2cc(N3CCN(c4ccccn4)CC3)nc(-c3ccccn3)n2)nc1` [CHEMBL579352], in data set [5], the “activity vs Pyoellii” value is given as 17.5 nM. Moreover, the “activity vs two Pfalciparum strains” value in [6] is below 100 nM.
For the compound `O=C(C1CCCCC1)N1CC(=O)N2CCc3ccccc3C2C1` (stereo not drawn) [Praziquantel], the Motility score in data set [7] (+AMP-B (0.25μg/ml)) is listed as -0.57 ± 0.10; in [7] (setting [13]), -0.52 ±0.08; in data set [7] (setting [14]), -0.67 ±0.12; in data set [7] (MMV library plates, negative control adjusted to zero), -0.57 ±0.10; in data set [7] (setting [15]), -0.63 ±0.07; in data set [11], -0.53 ± 0.10. Also, the Phenotype score in [7] (+AMP-B (0.25μg/ml)) is reported as -0.38 ± 0.08; in [7] (setting [13]), -0.35 ±0.09; in [7] (setting [14]) it was -0.50 ±0.10; in [7] (MMV library plates, mean ±SD, negative control adjusted to zero), -0.37 ±0.09; in data set [7] (setting [15]) it was -0.37 ±0.04; in [11], -0.21 ± 0.12. Besides, the pEC50 in data set [7] (Schistosoma mansoni, 72 h, 3 day assay, geometric mean) is 5.72; in data set [8] (first value of cell, geometric mean, * n = 1), 5.33; in [9] (first value of cell, * n = 1), 6.52. Moreover, the inhibition at 12.5 µM was 57% in data set [8] (24 h, day 1, read-out: Juvenile (% motility reduction) DAY 1); 58.4% in [8] (120 h, day 5, read-out: Juvenile (% motility reduction) DAY 5); 76% in data set [9] (24 h, day 1, read-out: Adult % motility reduction DAY 1); 88% in data set [9] (120 h, day 5, read-out: Adult % motility reduction DAY 5). This compound registered a CC50 at 72 h in [10] above 50000 nM.
For `C[C@@H]1[C@H](O)[C@@H](C)/C=C/C=C/C=C/C=C/C=C/C=C/C=C/[C@H](O[C@@H]2O[C@H](C)[C@@H](O)[C@H](N)[C@@H]2O)C[C@@H]2O[C@](O)(C[C@@H](O)C[C@@H](O)[C@H](O)CC[C@@H](O)C[C@@H](O)CC(=O)O[C@H]1C)C[C@H](O)[C@H]2C(=O)O` [AMP-B, amphotericin B], the “concentrations reported to have lethal activity” value in data set [12] is 1 to 10 µM.
